Where “and” joins values, the source holds several entries; their conditions need not be identical. Identical values can stand only once.
Test system: NCI-H226 complex tumor spheroids, viability
Test: Anticancer human tumor NCI-H226 cell line growth inhibition;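 note: spheroids exposed to compound for 7 days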;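 for viability, T/C: 100% = DMSO vehicle control viability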
Details: for viability, T/C: stronger effect = lower value; active = viability on the fitted dose curve at most 10% of control; inactive = the rest
Description: Multicellular complex tumor spheroid response to DNA repair inhibitors in combination with DNA-damaging drugs
This study explores the anticancer activities of DNA-damaging drugs and inhibitors of DNA damage repair, both as single agents and in combinations. Complex tumor spheroids comprised of malignant cells, endothelial cells and mesenchymal stem cells served as an in vitro model for human solid tumors. This model system incorporates physiologically relevant features and patient-derived or established malignant cell lines with clinically relevant genetic alterations from many tumor types. Twenty-six patient-derived or established malignant cell lines were evaluated representing sarcoma, melanoma, small cell lung cancer (SCLC), non-small cell lung cancer (NSCLC), as well as bladder, ovarian and pancreatic cancers. The concentration ranges selected for each drug and investigational agent were based upon clinically achievable concentrations if the clinical Cmax of the agent was known.
Compounds. The drugs and compounds olaparib (NSC753686), talazoparib (NSC767125), berzosertib (NSC777718), elimusertib (NSC800525), nedisertib (NSC802822), VX-984 (NSC792969), AZD-1390 (NSC803789), temozolomide (NSC362856), topotecan (NSC609699), trabectedin (NSC813783), staurosporine (NSC755774), and gemcitabine (NSC613327) were obtained from the National Cancer Institute (NCI) Developmental Therapeutics Program Chemical Repository. The FDA-approved anticancer drug set is available from the Developmental Therapeutics Program at https://dtp.cancer.gov/organization/dscb/obtaining/available_plates.htm. […] The stock solutions were prepared in dimethyl sulfoxide (DMSO, Sigma-Aldrich, St. Louis, MO, cat. D2650) at 400-fold the tested concentration and stored at -70 degrees C. Prior to their use, the stock solutions were diluted in fresh medium and the final DMSO concentration in the assay was 0.25% (v/v). All drugs and investigational agents were tested over a range starting from a high concentration at or near the clinical Cmax and decreasing in half-log increments. If the clinical Cmax for an agent had not been determined, the highest concentration tested was 10 microM.
Cell Lines. The patient-derived cancer cell (PDC) lines: 156681-154-R-J1-PDC, 283228-195-R-J1-PDC, 287954-098-R-J1-PDC, 292921-168-R-J2-PDC, 349418-098-R-PDC, 425362-245-T-J1-PDC, 556581-035-R-J1-PDC, and BL0293-F563-PDC were received from the NCI Patient-Derived Models Repository (PDMR, https://pdmr.cancer.gov). The established cell lines HS-SY-2 (RRID:CVCL_8719), MPNST, and SYO-1 (RRID:CVCL_7146) were obtained from the Sloan Kettering Institute. The alveolar soft parts sarcoma cell line ASPS-1 (RRID:CVCL_S738) was established at the NCI and grown from internal seed stocks. The following established cell lines were purchased from the American Type Culture Collection (ATCC, Manassas, VA): G-401 (ATCC, cat. CRL-1441, RRID:CVCL_0270), SW982 (ATCC, cat. HTB-93, RRID:CVCL_1734), VA-ES-BJ (ATCC, cat. CRL-2138, RRID:CVCL_1785), NCI-H719 (ATCC, cat. CRL-5837, RRID:CVCL_1582), NCI-H196 (ATCC, cat. CRL-5823, RRID:CVCL_1509), NCI-H841 (ATCC, cat. CRL-5845, RRID:CVCL_1595), NCI-H1618 (ATCC, cat. CRL-5879, RRID:CVCL_1480), NCI-H1876 (ATCC, cat. CRL-5902, RRID:CVCL_1503), DMS 114 (ATCC, cat. CRL-2066; RRID:CVCL_1174), NCI-H211 (ATCC, cat. CRL-5824; RRID:CVCL_1529), and SW 1271 (ATCC, cat. CRL-2177, RRID:CVCL_1716). The small cell lung cancer cell line COR-L88 was purchased from Sigma-Aldrich (cat. 92031917-1VL, RRID:CVCL_1141). The non-small cell lung cancer cell lines NCI-H226 (RRID:CVCL_1544) and NCI-H322M (RRID:CVCL_1557) were established at the NCI and grown from internal seed stocks. Pooled donor human umbilical vein endothelial cells (HUVEC, Lonza, cat. CC-2519) and human mesenchymal stem cells (hMSC, Lonza, cat. PT-2501) were purchased from Lonza (Walkersville, MD).
Cell Culture. All cells were maintained in an incubator at 37 degrees C and 5% CO2 with 95% humidity. […]

Cc1cc(C)c(CNC(=O)c2cc(-c3ccc(CN4CCOCC4)cc3)cc3c2cnn3C2CCCC2)c(=O)[nH]1 + CC[C@@]1(O)C(=O)OCc2c1cc1n(c2=O)Cc2cc3c(CN(C)C)c(O)ccc3nc2-1
inactive: viability, T/C (second compound 0.003 µM, first compound 0.0316 µM) 101% | viability, T/C (second compound 0.003 µM, first compound 0.1 µM) 96.8% | viability, T/C (second compound 0.003 µM, first compound 0.316 µM) 98.3% | viability, T/C (second compound 0.003 µM, first compound 1 µM) 85.3% | viability, T/C (second compound 0.003 µM, first compound 3.16 µM) 95.7% | viability, T/C (second compound 0.003 µM, first compound 10 µM) 108% | viability, T/C (second compound 0.00949 µM, first compound 0.0316 µM) 87.2% | viability, T/C (second compound 0.00949 µM, first compound 0.1 µM) 88.8% | viability, T/C (second compound 0.00949 µM, first compound 0.316 µM) 92.4% | viability, T/C (second compound 0.00949 µM, first compound 1 µM) 82.9% | viability, T/C (second compound 0.00949 µM, first compound 3.16 µM) 78.6% | viability, T/C (second compound 0.00949 µM, first compound 10 µM) 96.3% | viability, T/C (second compound 0.03 µM, first compound 0.0316 µM) 91.8% | viability, T/C (second compound 0.03 µM, first compound 0.1 µM) 78.3% | viability, T/C (second compound 0.03 µM, first compound 0.316 µM) 87.6% | viability, T/C (second compound 0.03 µM, first compound 1 µM) 88.9% | viability, T/C (second compound 0.03 µM, first compound 3.16 µM) 79.7% | viability, T/C (second compound 0.03 µM, first compound 10 µM) 95.3% | viability, T/C (second compound 0.0949 µM, first compound 0.0316 µM) 70.7% | viability, T/C (second compound 0.0949 µM, first compound 0.1 µM) 72.9% | viability, T/C (second compound 0.0949 µM, first compound 0.316 µM) 71% | viability, T/C (second compound 0.0949 µM, first compound 1 µM) 77.5% | viability, T/C (second compound 0.0949 µM, first compound 3.16 µM) 76.1% | viability, T/C (second compound 0.0949 µM, first compound 10 µM) 106% | viability, T/C (second compound 0.3 µM, first compound 0.0316 µM) 64% | viability, T/C (second compound 0.3 µM, first compound 0.1 µM) 62.4% | viability, T/C (second compound 0.3 µM, first compound 0.316 µM) 67% | viability, T/C (second compound 0.3 µM, first compound 1 µM) 68.5% | viability, T/C (second compound 0.3 µM, first compound 3.16 µM) 79.8% | viability, T/C (second compound 0.3 µM, first compound 10 µM) 95.2%
> 10 µM: IC50 (curve of first compound, second compound 0.003 µM) | IC50 (curve of first compound, second compound 0.00949 µM) | IC50 (curve of first compound, second compound 0.03 µM) | IC50 (curve of first compound, second compound 0.0949 µM) | IC50 (curve of first compound, second compound 0.3 µM)

COc1ccc([C@@H](O)c2cc(-c3ncnc4cc(N5CCOCC5)ccc34)c(F)cc2Cl)nn1
inactive: viability, T/C (compound 0.0316 µM) 96.6% and 91% and 98.2% | viability, T/C (compound 0.1 µM) 93.2% and 99.9% and 94.4% | viability, T/C (compound 0.316 µM) 89.3% and 96.3% and 93.6% | viability, T/C (compound 1 µM) 80.3% and 71.2% and 82.1% | viability, T/C (compound 3.16 µM) 54.6% and 52.2% and 55.1% | viability, T/C (compound 10 µM) 39.5% and 35.6% (2×)
4.63 µM and 3.04 µM and 4.29 µM: IC50 (curve of compound)
